Measured values reported in DBAASP.
In brackets after ≈: the same amount, converted by molar mass.

Experiments:
Assay in all cases: ≥ marks a high value that may be exact or a test limit, other limits are often not marked, values filed in µg/mL are converted to µM
Staphylococcus aureus = test system: Staphylococcus aureus
Escherichia coli = test system: Escherichia coli
[1] = test system: Escherichia coli ATCC 25922
[2] = test system: Staphylococcus aureus ATCC 29213
[3] = test system: Staphylococcus aureus ATCC 25923
[4] = test system: Staphylococcus epidermidis ATCC 12228
[5] = test system: Pseudomonas aeruginosa ATCC 27853

Row | MIC (Escherichia coli) | MIC [1] | MIC [3] | Structure (SMILES) | further results
1 | – | 5 µM (≈ 8.39 µg/mL) | – | CC[C@H](C)[C@H](NC(=O)[C@H](CCCN=C(N)N)NC(=O)[C@H](CCCCN)NC(=O)[C@@H](N)Cc1ccccc1)C(=O)NCC(=O)N[C@@H](CCC(N)=O)C(=O)N[C@@H](CCCN=C(N)N)C(=O)N[C@H](C(=O)N[C@@H](CCCCN)C(=O)N[C@@H](CC(=O)O)C(=O)N[C@@H](Cc1ccccc1)C(=O)N[C@@H](CC(C)C)C(=O)N[C@@H](CCCN=C(N)N)C(=O)O)[C@@H](C)CC [FKRIGQRIKDFLR] | MIC [2]: > 40 µM
2 | – | 10 µM (≈ 16.8 µg/mL) | – | CC[C@H](C)[C@H](NC(=O)[C@H](CCCN=C(N)N)NC(=O)[C@H](CCCCN)NC(=O)[C@@H](N)Cc1ccccc1)C(=O)N[C@H](C(=O)N[C@@H](CCC(N)=O)C(=O)N[C@@H](CCCN=C(N)N)C(=O)N[C@@H](C)C(=O)N[C@@H](CCCCN)C(=O)N[C@@H](CC(=O)O)C(=O)N[C@@H](Cc1ccccc1)C(=O)N[C@@H](CC(C)C)C(=O)N[C@@H](CCCN=C(N)N)C(=O)O)C(C)C [FKRIVQRAKDFLR] | MIC [2]: > 40 µM
3 | > 50 µM | – | – | CC[C@H](C)[C@H](NC(=O)[C@H](CCCCN)NC(=O)[C@H](CC(C)C)NC(=O)[C@H](C)NC(=O)[C@H](C)NC(=O)[C@H](CCCCN)NC(=O)[C@H](CC(C)C)NC(=O)[C@H](C)NC(=O)[C@H](CCCCN)NC(=O)CNC(=O)[C@H](CC(C)C)NC(=O)[C@H](Cc1ccccc1)NC(=O)[C@H](CO)NC(=O)CNC(=O)[C@H](Cc1ccccc1)NC(=O)CN)C(=O)NCC(=O)N[C@@H](C)C(=O)N[C@@H](CC(=O)O)C(=O)N[C@H](C(=O)N[C@@H](CC(C)C)C(=O)NCC(=O)NCC(=O)N[C@@H](C)C(=O)N1CCC[C@H]1C(=O)N[C@@H](CCC(N)=O)C(=O)N[C@@H](CCC(N)=O)C(=O)O)C(C)C [GFGSFLGKALKAALKIGADVLGGAPQQ] | MIC (Staphylococcus aureus): 25 µM (≈ 65.4 µg/mL)
4 | – | 5 µM (≈ 10 µg/mL) | 18.8 µM (≈ 37.6 µg/mL) | CC(C)C[C@H](NC(=O)[C@H](C)NC(=O)[C@H](CCCCN)NC(=O)[C@H](C)NC(=O)[C@H](C)NC(=O)CNC(=O)[C@H](CCCCN)NC(=O)[C@H](CC(C)C)NC(=O)[C@H](CC(C)C)NC(=O)[C@H](CC(=O)O)NC(=O)[C@H](CCCCN)NC(=O)[C@H](Cc1ccccc1)NC(=O)CN)C(=O)N[C@H](C(=O)N[C@@H](CCCCN)C(=O)N[C@H](C(=O)N[C@H](C(=O)N[C@@H](CC(C)C)C(=O)N[C@@H](CCCCN)C(N)=O)C(C)C)[C@@H](C)O)C(C)C [GFKDLLKGAAKALVKTVLK] | –
5 | – | 10 µM (≈ 28.1 µg/mL) | – | CC[C@H](C)[C@H](NC(=O)CN)C(=O)N[C@@H](CCCCN)C(=O)N[C@@H](CCCCN)C(=O)N[C@@H](Cc1c[nH]c2ccccc12)C(=O)N[C@@H](CC(C)C)C(=O)N[C@@H](Cc1cnc[nH]1)C(=O)N[C@@H](CCCCN)C(=O)N1CCC[C@H]1C(=O)N[C@@H](CCCCN)C(=O)N[C@@H](CCCCN)C(=O)N[C@@H](Cc1ccccc1)C(=O)N1CCC[C@H]1C(=O)N[C@@H](CCCCN)C(=O)N[C@@H](CCCCN)C(=O)N[C@@H](Cc1ccccc1)C(=O)N[C@H](C(=O)N[C@@H](CCCCN)C(=O)N[C@@H](CCCCN)C(=O)N[C@H](C(=O)N[C@@H](CCSC)C(=O)N[C@@H](CC(N)=O)C(=O)N[C@@H](CO)C(N)=O)[C@@H](C)CC)C(C)C [GIKKWLHKPKKFPKKFVKKIMNS] | MIC [4]: 1.25 µM (≈ 3.51 µg/mL)
6 | – | > 34.2 µM | > 34.2 µM | CC[C@H](C)[C@H](NC(=O)[C@H](CCCN=C(N)N)NC(=O)[C@H](CCCCN)NC(=O)[C@H](C)NC(=O)[C@H](CC(C)C)NC(=O)CN)C(=O)N[C@@H](CCCCN)C(=O)N[C@H](C(=O)N[C@@H](CC(C)C)C(=O)N[C@@H](CC(C)C)C(N)=O)[C@@H](C)O [GLAKRIKTLL] | –
7 | > 160 µM | – | – | CC[C@H](C)[C@H](NC(=O)[C@H](Cc1ccccc1)NC(=O)CNC(=O)[C@H](CCCCN)NC(=O)[C@H](C)NC(=O)[C@H](Cc1ccccc1)NC(=O)[C@H](CCCCN)NC(=O)[C@H](CCCCN)NC(=O)[C@@H](NC(=O)[C@H](CO)NC(=O)[C@H](Cc1cnc[nH]1)NC(=O)[C@H](CC(C)C)NC(=O)[C@@H](NC(=O)[C@H](CCC(=O)O)NC(=O)[C@H](CCCCN)NC(=O)[C@H](CC(C)C)NC(=O)CN)C(C)C)[C@@H](C)O)C(=O)N[C@H](C(=O)NCC(=O)N[C@@H](CC(C)C)C(=O)N[C@H](C(=O)NCC(=O)N[C@@H](CCC(N)=O)C(=O)O)[C@@H](C)O)[C@@H](C)O [GLKEVLHSTKKFAKGFITGLTGQ] | MIC (Staphylococcus aureus): > 160 µM
8 | – | 1.8 µM (≈ 2 µg/mL) | 1.8 µM (≈ 2 µg/mL) | CC[C@H](C)[C@H](NC(=O)[C@H](CC(C)C)NC(=O)[C@H](CCCCN)NC(=O)[C@H](CC(C)C)NC(=O)[C@H](CC(C)C)NC(=O)CN)C(=O)N[C@@H](CCCCN)C(=O)N[C@H](C(=O)N[C@@H](CC(C)C)C(=O)N[C@@H](CC(C)C)C(N)=O)[C@@H](C)O [GLLKLIKTLL] | –
9 | – | 7.72 µM (≈ 8.99 µg/mL) | 12 µM (≈ 14 µg/mL) | CC[C@H](C)[C@H](NC(=O)[C@H](CCCCN)NC(=O)[C@@H](NC(=O)[C@H](CCCN=C(N)N)NC(=O)[C@H](CCCCN)NC(=O)[C@H](CC(C)C)NC(=O)[C@H](CC(C)C)NC(=O)CN)[C@@H](C)CC)C(=O)N[C@@H](CC(C)C)C(=O)N[C@@H](CC(C)C)C(N)=O [GLLKRIKILL] | –
10 | – | > 43.1 µM | > 43.1 µM | CC[C@H](C)[C@H](NC(=O)[C@H](CCCN=C(N)N)NC(=O)[C@H](CCCCN)NC(=O)[C@H](CC(C)C)NC(=O)[C@H](CC(C)C)NC(=O)CN)C(=O)N[C@@H](CCCCN)C(=O)N[C@H](C(=O)N[C@@H](CC(C)C)C(=O)N[C@@H](C)C(N)=O)[C@@H](C)O [GLLKRIKTLA] | –
11 | 40 µM (≈ 104 µg/mL) | – | – | CC[C@H](C)[C@H](NC(=O)[C@@H](NC(=O)[C@@H](NC(=O)[C@H](Cc1c[nH]c2ccccc12)NC(=O)[C@@H](NC(=O)CN)C(C)C)[C@@H](C)O)[C@@H](C)O)C(=O)N[C@@H](CC(C)C)C(=O)NCC(=O)NCC(=O)N[C@@H](CC(C)C)C(=O)N[C@@H](CCCCN)C(=O)N[C@@H](CCCCN)C(=O)N[C@@H](Cc1ccccc1)C(=O)N[C@@H](C)C(=O)N[C@@H](CCCCN)C(=O)NCC(=O)NCC(=O)N[C@@H](CC(C)C)C(=O)N[C@@H](CCC(=O)O)C(=O)N[C@@H](C)C(=O)N[C@@H](CC(C)C)C(=O)N[C@H](C(=O)N[C@@H](CC(N)=O)C(=O)N1CCC[C@H]1C(=O)N[C@@H](CCCCN)C(=O)O)[C@@H](C)O [GVWTTILGGLKKFAKGGLEALTNPK] | MIC (Staphylococcus aureus): 80 µM (≈ 208 µg/mL)
12 | 2.1 µM (≈ 4.5 µg/mL) | – | – | CC[C@H](C)[C@H](N)C(=O)NCC(=O)N[C@@H](CCCCN)C(=O)N[C@@H](CC(C)C)C(=O)N1CCC[C@H]1C(=O)N[C@@H](CCCCN)C(=O)N[C@@H](Cc1c[nH]c2ccccc12)C(=O)N[C@H](C(=O)N[C@H](C(=O)N[C@@H](CCCCN)C(=O)N[C@H](C(=O)N[C@H](C(=O)N[C@@H](CC(N)=O)C(=O)N[C@@H](CCCCN)C(=O)N[C@@H](Cc1ccccc1)C(=O)N[C@H](C(=O)N[C@@H](CCCCN)C(=O)N[C@@H](CCCCN)C(=O)O)[C@@H](C)O)C(C)C)[C@@H](C)O)[C@@H](C)CC)[C@@H](C)CC [IGKLPKWIIKTVNKFTKK] | –
13 | – | 4 µM (≈ 9.1 µg/mL) | 8 µM (≈ 18.2 µg/mL) | CC(C)C[C@H](NC(=O)[C@H](C)NC(=O)[C@H](CCCCN)NC(=O)[C@H](CC(C)C)NC(=O)[C@H](C)NC(=O)[C@H](CCCCN)NC(=O)[C@H](CCCCN)NC(=O)[C@H](CC(C)C)NC(=O)[C@H](C)NC(=O)[C@H](CCCCN)NC(=O)[C@H](CC(C)C)NC(=O)[C@H](C)NC(=O)[C@H](CCCCN)NC(=O)[C@H](CCCCN)NC(=O)[C@H](CC(C)C)NC(=O)[C@H](C)NC(=O)[C@H](CCCCN)NC(=O)[C@H](CC(C)C)NC(=O)[C@H](C)NC(=O)[C@@H](N)CCCCN)C(=O)N[C@@H](CCCCN)C(N)=O [KALKALKKALKALKKALKALK] | MIC [5]: 4 µM (≈ 9.1 µg/mL)
14 | 10.7 µM (≈ 20 µg/mL) | 8 µM (≈ 15 µg/mL) | – | CC(C)C[C@H](NC(=O)[C@H](Cc1ccccc1)NC(=O)[C@@H]1CCCN1C(=O)[C@H](Cc1c[nH]c2ccccc12)NC(=O)[C@H](Cc1c[nH]c2ccccc12)NC(=O)[C@H](Cc1c[nH]c2ccccc12)NC(=O)[C@H](C)NC(=O)[C@H](Cc1ccccc1)NC(=O)[C@H](CCCN=C(N)N)NC(=O)[C@H](CCCN=C(N)N)NC(=O)[C@@H](N)C(C)C)C(=O)N[C@@H](CCCN=C(N)N)C(=O)N[C@@H](CCCN=C(N)N)C(N)=O [VRRFAWWWPFLRR] | MIC (Staphylococcus aureus): 2.13 µM (≈ 4 µg/mL)
15 | – | 64 µM (≈ 108 µg/mL) | > 100 µM | CC(C)[C@H](NC(=O)[C@H](CC(=O)O)NC(=O)[C@H](CO)NC(=O)[C@H](CCCCN)NC(=O)[C@@H](N)Cc1c[nH]c2ccccc12)C(=O)N[C@@H](CCCN=C(N)N)C(=O)N[C@@H](CCCN=C(N)N)C(=O)N[C@@H](Cc1c[nH]c2ccccc12)C(=O)N[C@@H](CCCN=C(N)N)C(=O)N[C@@H](CO)C(=O)N[C@@H](CCCN=C(N)N)C(=O)N[C@@H](Cc1ccc(O)cc1)C(N)=O [WKSDVRRWRSRY] | MIC [5]: > 100 µM
16 | – | 64 µM (≈ 85.5 µg/mL) | 64 µM (≈ 85.5 µg/mL) | CC(C)[C@H](NC(=O)[C@H](Cc1ccc(O)cc1)NC(=O)[C@H](CO)NC(=O)[C@H](CCCCN)NC(=O)[C@@H](N)Cc1c[nH]c2ccccc12)C(=O)N[C@@H](CCCN=C(N)N)C(=O)N[C@@H](CCCN=C(N)N)C(=O)N[C@@H](Cc1c[nH]c2ccccc12)C(=O)N[C@@H](CCCN=C(N)N)C(N)=O [WKSYVRRWR] | MIC [5]: > 100 µM

Row | Structure (SMILES) | MIC (Escherichia coli) | MIC [1] | MIC [3] | further results
17 | CSCC[C@@H]1NC(=O)[C@H](CC(C)C)NC(=O)[C@H](CCCN=C(N)N)NC(=O)[C@H](CO)NC(=O)[C@@H]2CSSC[C@@H]3NC(=O)[C@H](CO)NC(=O)CNC(=O)[C@H]([C@@H](C)O)NC(=O)[C@H](CSSC[C@H](N)C(=O)N[C@@H](CCCCN)C(=O)NCC(=O)N[C@@H](CCCCN)C(=O)NCC(=O)N[C@@H](C)C(=O)N[C@@H](CCCCN)C(=O)N2)NC(=O)[C@H](CSSC[C@@H](C(=O)NCC(=O)N[C@@H](CO)C(=O)O)NC(=O)[C@H](CCCCN)NC(=O)CNC(=O)[C@H](CO)NC(=O)[C@H](CCCN=C(N)N)NC3=O)NC(=O)[C@H](CC(=O)O)NC(=O)[C@H](Cc2ccc(O)cc2)NC1=O [CKGKGAKCSRLMYDCCTGSCRSGKCGS] | > 500 µM | – | – | MIC (Staphylococcus aureus): > 500 µM
